Biological target: T1, full-length human PAFR (Homo sapiens, UniProt P25105)
T1 construct: PAFR was derived from membranes from CHO cells over-expressing the full-length human PAFR; expressed in transfected cells; host or cells: CHO cells (membranes)
Assay: PAF Binding Assay
Conditions: for IC50: 3H-PAF competition, membranes from CHO cells over-expressing human PAFR, SPA beads
Method: PAFR was derived from membranes from CHO cells over-expressing the full-length human PAFR. Supernatant from the cell homogenate pellet (3000×g) is pelleted (35000×g), and the resulting pellet is resuspended in a Tris HCl buffer (50 mM Iris HCl pH 7.4, 5 mM MgCl2, 30% glycerol) to afford a parent PAFR stock that is diluted in PAF binding buffer (50 mM HEPES pH 7.0, 10 mM MgCl2, 5 mM CaCl2, 5 mM D-(+)glucose, 0.25% fatty-acid free BSA) to afford a PAFR assay stock (120 μg/mL) prior to each use.
Binding buffer (48 μL) and competitor compound (i.e., the compound to be tested) in DMSO (2 μL) were added to a 96-well plate. Cold PAF C-18 (200 nM final concentration) was used to determine non-specific binding. 25000 cpm of ^3H-PAF (25 μL of a stock solution in PAF binding buffer) was added to all wells, and the plates sealed and shaken at rt for 5 min. PAFR assay stock (3 μg/well) was added, and the plate was sealed and shaken at rt for 2 h. SPA beads^1 (10 μL of a 25 mg/mL suspension in binding buffer) were added to all wells, and the plates were sealed and shaken for 30 min. The plates were centrifuged (1900 rpm for 5 min.), allowed to stand for 30 min. and read on a Microbeta TriLux counter.
Specific binding is defined as total binding minus non-specific binding. Total binding was the amount of ^3H-PAF bound to SPA beads in the absence of competitor; non-specific binding was ^3H-PAF bound in the presence of 30 μM Compound A.^2 The IC50 values were obtained by computer analysis of the experimental data.^3 Percent inhibition was calculated as 100−[(Sample-Non-specific bound)/(Total bound Non-specific bound)×100]

T1 sequence (P25105 whole entry): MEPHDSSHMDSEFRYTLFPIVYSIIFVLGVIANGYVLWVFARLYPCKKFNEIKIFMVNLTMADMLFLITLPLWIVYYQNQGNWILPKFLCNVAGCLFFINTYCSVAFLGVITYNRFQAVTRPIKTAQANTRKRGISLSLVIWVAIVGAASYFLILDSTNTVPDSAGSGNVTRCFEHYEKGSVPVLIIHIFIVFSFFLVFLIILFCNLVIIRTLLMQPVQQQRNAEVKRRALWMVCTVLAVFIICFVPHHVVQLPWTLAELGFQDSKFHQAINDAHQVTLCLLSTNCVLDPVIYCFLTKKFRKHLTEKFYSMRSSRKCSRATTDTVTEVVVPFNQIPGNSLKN

SMILES | IC50 | IC50 results in the PAF Binding Assay, slower vs faster eluting enantiomer (comparison of the resolved enantiomers, in words)
O=C(c1ccc2c(c1)nc(-c1ccc(OC(F)(F)F)cc1)n2C1CCC1)N1CCC(c2cccnc2)C1 (stereo not drawn) [Example 1Fr, 1-cyclobutyl-5-[(3-pyridin-3-ylpyrrolidin-1-yl)carbonyl]-2-[4-(trifluoromethoxy)phenyl]-1H-benzimidazole] | 9 nM | 
CC(C)c1nc2cc(C(=O)N3CCC(c4cccnc4)C3)ccc2n1-c1ccc(OC(F)(F)F)cc1 (single isomer, unassigned) [Example 1c, 2-isopropyl-5-[(3-pyridin-3-ylpyrrolidin-1-yl)carbonyl]-1-[4-(trifluoromethoxy)phenyl]-1H-benzimidazole] | 11 nM | 
CC(C)n1c(-c2ccc(OC(F)(F)F)cc2)nc2cc(C(=O)N3CCC(c4cccnc4)C3)ccc21 (single isomer, unassigned) [Example 1Ar, 1-isopropyl-5-[(3-pyridin-3-ylpyrrolidin-1-yl)carbonyl]-2-[4-(trifluoromethoxy)phenyl]-1H-benzimidazole] | 2 nM | faster eluting enantiomer was preferred

More lines, in order of falling IC50, values ahead:

IC50 | IC50 results in the PAF Binding Assay, slower vs faster eluting enantiomer (comparison of the resolved enantiomers, in words) | SMILES
10 nM |  | CC1(n2c(-c3ccc(OC(F)(F)F)cc3)nc3cc(C(=O)N4CCC(c5cccnc5)C4)ccc32)CC1 (stereo not drawn) [Example 1Gr, 1-(1-methylcyclopropyl)-5-[(3-pyridin-3-ylpyrrolidin-1-yl)carbonyl]-2-[4-(trifluoromethoxy)phenyl]-1H-benzimidazole]
9 nM |  | CC(C)n1c(-c2ccc(OC(F)(F)F)cc2)nc2cc(C(=O)N3CCC(O)(c4cccnc4)C3)ccc21 (stereo not drawn) [Example 1Qa, 1-({1-isopropyl-2-[4-(trifluoromethoxy)phenyl]-1H-benzimidazol-5-yl}carbonyl)-3-pyridin-3-ylpyrrolidin-3-ol]
